Laboratory results reported in patent publication US8486429B2, “Storage stable formulation and a process for its preparation” (priority 2005, dated 2013).
Where two headings read alike, the source gives them in different places.

What was measured:
[1] = AHS stability study in trilaminated pouches, 14 days at 30, 45 and 54° C.: active content and pH of 1% aq. solution/suspension; assay type: physicochemical; conditions: for extent to which Acephate degrades: 54° C.
Method: Acephate technical of 97.5% purity was taken and kept in AHS stability study at 30, 45 and 54° C. in trilaminated pouches. The results of the AHS experiment for Acephate Technical are seen in the following Tables 1, 2 and 3.
40 gm Acephate technical of 97.5% purity was taken from plant and mixed with 10 gm of citric acid by using laboratory made mixture to obtained homogenious powder and is then kept in AHS at 30, 45 and 54° C. in trilaminated pouches.
40 gm Acephate technical of 97.5% purity was taken from plant and mixed with 5 gm of citric acid by using laboratory made mixture to obtained homogenious powder and is the kept in AHS at 30, 45 and 54° C. in trilaminated pouches.
48 gm Acephate technical of 97.5% purity was taken from plant and mixed with 2 gm of citric acid by using laboratory made mixture to obtained homogenious powder and is the kept in AHS at 30, 45 and 54° C. in trilaminated pouches.
Acephate technical of 97.5% purity was taken from the plant and mixed in a laboratory mixer by adding 1% water and was then kept in AHS stability study at 30° C., 45° C. and 54° C. in trilaminated pouches.
Acephate technical of 97.5% purity was taken from the plant and mixed in laboratory mixer by adding 1% water 4% citric acid and was then kept in AHS stability study at 30, 45 and 54° C. in trilaminated pouches.
Imidacloprid technical was taken from the plant and is kept in AHS stability study at 30, 45 and 54° C. in trilaminated pouches.
Imidacloprid technical was taken from the plant and mixed in laboratory mixer by adding 1% water and is then is kept in AHS stability study at 45 and 54° C. in trilaminated pouches.
40 gm of Imidacloprid technical and 10 gm of citric acid was mixed in laboratory mixer and was then kept in AHS stability study at 30, 45 and 54° C. in trilaminated pouches,
45 gm of Imidacloprid technical and 05 gm of citric acid was mixed in laboratory mixer and was then kept in AHS stability study at 30° C., 45° C. and 54° C. in trilaminated pouches.
48 gm of Imidacloprid technical and 2 gm of citric acid was mixed in laboratory mixer and was then kept in AHS stability study at 30, 45 and 54° C. in trilaminated pouches.
49.5 gm of Imidacloprid technical and 0.5 gm of citric acid was mixed in laboratory mixer and was then kept in AHS stability study at 30, 45 and 54° C. in trilaminated pouches.
Imidacloprid technical was taken from plant and mixed in laboratory mixer by adding 10 gm citric acid and 2 gm water and is then is kept in AHS stability study at 30, 45 and 54° C. in trilaminated pouches,
Imidacloprid technical was taken from the plant and mixed in laboratory mixer by adding 5 gm citric acid and 2 gm water and was then kept in AHS stability study at 30, 45 and 54° C. in trilaminated pouches.
53 gm of Acephate technical was taken from the plant and mixed in a laboratory mixer by adding 3 gm imidacloprid without coating and without any citric acid. This was then kept in AHS stability study at 30, 45 and 54° C. in trilaminated pouches.
53 gm of Acephate technical was taken from the plant and mixed in a laboratory mixer by adding 3 gm imidacloprid without encapsulation and with 2.2 gm of citric acid . This was then kept in AHS stability study at 30, 45 and 54° C. in trilaminated pouches.
In a laboratory plough shear mixture 291.5 gm of Imidacloprid of particle size ranging from 15 micron to 50 micron was charged and blended by operating only the plough. Then 204 gm PEG-8000 was heated in a separate vessel at 65° C. for 15 min. […]

[2] = cited from earlier work
insect = assay: Synergistic insecticidal effect of Imidacloprid + Acephate (mortality, Colby's method); assay type: in vivo
Method: Synergism can be calculated by using the Colby's method i.e. the expected (or predicted) response of the combination is calculated by taking the product of the observed response for each individual component of the combination when applied alone divided by 100 and subtracting this value from the sum of observed response for each component when applied alone. Synergism of the combination is then determined by comparing the observed response of the combination to the expected (or predicted) response as calculated from the observed response of each individual component alone. If the observed response of the combination is greater than the expected (or predicted) response then the combination is said to be synergistic and falls within the definition of synergistic effect. (Colby, S. R., Weeds, 1967(15), p. 20-22)

crop plants = conditions: in vivo; cited from earlier work
[3] = cited from earlier work; for DT50 (hydrolysis): 40° C.; for DT 50 (calculated) (hydrolysis): 20° C.
rats [4] = conditions: cited from earlier work
rats [5] = conditions: cited from earlier work; remark: listed apart in the source
rats [6] = conditions: cited from earlier work; remark: listed apart in the source
rabbits = conditions: cited from earlier work
mice = conditions: cited from earlier work
[7] = in vivo; cited from earlier work
[8] = mammals, oral administration, within 24 hours, almost entirely in the urine; cited from earlier work

For `COP(=O)(NC(C)=O)SC` (stereo not shown) [Experiment 1, O,S-dimethylacetylphosphoramidothioate], the “extent to which Acephate degrades” value ([1]; presence of 1% moisture, absence of Citric acid, initial pH of 4.70) is given as 12.84%, the “extent to which Acephate degrades” value ([1]; presence of Citric acid and 1% moisture, initial pH 3.18) is given as 6.88% and the solubility in ethanol ([2]; 20° C.) is given as > 100 mg/mL. For the same compound, the solubility in water ([2]; 20° C.) was “about 790 g/l”, the “Observed Mortality %” value (insect; Imidacloprid 0 ppm, Acephate 600 ppm) was 52.50% and the “Observed Mortality %” value (insect; Imidacloprid 0 ppm, Acephate 700 ppm) was 60.00%. For the same compound, the “Observed Mortality %” value (insect; Imidacloprid 0 ppm, Acephate 800 ppm) was 70.00%, the “phytotoxicity” value (crop plants) was “non-phytotoxic to most crop plants” and the “DT50 (hydrolysis)” value ([3]; pH 3) was 710 h. For the same compound, the “DT50 (hydrolysis)” value ([3]; pH 9) was 60 h.
For `C/C(=N\C#N)N(C)Cc1ccc(Cl)nc1` [Acetamiprid], the “solubility in organic solvents” value ([2]; acetone, methanol, ethanol, dichloromethane, chloroform, acetonitrile and tetrahydrofuron) is given as “soluble”, the “acute oral LD50” value (rats [4]; female rats) is given as 146 mg/kg and the “acute oral LD50” value (rats [4]; male rats) is given as 217 mg/kg. The “Acute percutaneous LD50” value (rats [5]; male and female rats) was > 2000 mg/kg, the “inhalation LC50 (4 h)” value (rats [6]; male and female rats) was > 0.29 mg/L and the “irritation to skin and eyes” value (rabbits) was “Non irritating”. The “stability in buffered solutions” value ([3]; pH 4, 5, 7) was “Stable”, the “stability” value ([3]; pH 9 and 45° C.) was “Degraded slowly” and the “stability under sunlight” value ([3]; sunlight) was “Stable”. The “acute oral LD50” value (mice; female mice) was 184 mg/kg and the “acute oral LD50” value (mice; male mice) was 198 mg/kg.
With `O=[N+]([O-])NC1=NCCN1Cc1ccc(Cl)nc1` [Experiment 7, 1-(6-chloro-3-pyridylmet-hyl)-N-nitroimidazolidin-2-yldeneamine] the “Stability of Imidacloprid” value ([1]; pH of 2.68, Imidacloprid:citric acid 40:10) was “still more unstable”, the “Stability of Imidacloprid” value ([1]; pH of 3.60, Imidacloprid:Citric acid 49.5:0.5) was “unstable” and the “Stability of Imidacloprid” value ([1]; pH of 5.90) was “stable”. For the same compound, the solubility in hexane ([2]; 20° C.) was < 0.1 mg/mL, the “skin sensitisation” value [7] was “Not a skin sensitiser” and the “Observed Mortality %” value (insect; Imidacloprid 24 ppm, Acephate 0 ppm) was 55.00%. For the same compound, the “Observed Mortality %” value (insect; Imidacloprid 27 ppm, Acephate 0 ppm) was 69.25%, the “Observed Mortality %” value (insect; Imidacloprid 30 ppm, Acephate 0 ppm) was 72.10% and the “Acute percutaneous LD50 (24 h)” value (rats [5]; rats, 24 h) was > 5000 mg/kg. For the same compound, the “inhalation LC50 (4 h)” value (rats [6]; female rats, aerosol) was > 5323 mg/m^3 air, the “irritation to skin and eyes” value (rabbits) was “Non irritating” and the “Stability of imidacloprid reported in literature” value ([3]; pH of 5.60) was “stable”.
For `CCN(CC)C(=O)C(Cl)=C(C)OP(=O)(OC)OC` [Phosphamidon, 2-chloro-2-diethylcarbamoyl-1-methylvinyldimethylphosphate], the “% of the dose excreted” value [8] is listed as 85-90%, the “DT 50 (calculated) (hydrolysis)” value ([3]; pH 5) is listed as 60 days and the “DT 50 (calculated) (hydrolysis)” value ([3]; pH 7) is listed as 54 days. For the same compound, the “DT 50 (calculated) (hydrolysis)” value ([3]; pH 9) was 12 days.
